Measurements taken from US20060009618A1, “Expression receptors with 7 transmembrane domains in baculovirus-insect cell system” (priority 2002, published 2006).

Assays:
non-infected Sf9 cells = test: Calcium imaging (fura-2) in non-infected Sf9 cells; assay type: cell-based, Spodoptera frugiperda; conditions: ionophore at 5 μM, FIG. 2 top graph
Experimental: In a first series of experiments, the possibility of measuring the calcium response in Sf9 cells using the calcium imaging technique was tested.
The protocol used for the assays is as follows:
(§1) Sf9 cells are cultured on 24-well plates containing 12 mm coverslips. Before the experiments, the culture medium is removed and washed with a buffer containing 10 mM of NaCl, 60 mM of KCl, 25 mM of MgCl2, 1.8 mM of CaCl2, 4 mM of D-glucose, 110 mM of sucrose and 10 mM of 2-(N-morpholino)ethanesulfonic acid; the pH is adjusted to 6.2 at ambient temperature with Trizma base.
The cells are incubated for 1 hour at ambient temperature in the dark with a solution of MBS containing fura 2-AM (4 μm) (molecular probe). […]
(§2) The fura-2 fluorescence measurements are carried out using a T.I.L.L Photonics GmbH, (Planegg) Polychrome II multipath wavelength illumination system for extinction. […] The acquisition and the calculation of the fluorescence images are carried out using the T.I.L.L-Vision program. […] The fluorescence ratios (f340/f380) are calculated for the intracellular Ca^2+ variations. […]
The Ca^2+ signals are the result of the mean determined on all the cells in the field of the camera (gray signal) and of the mean for the responding cells (black signal) (n=4).

[1] = system: octopamine receptor naturally present in Sf9 cells; test: Octopamine control, calcium imaging (fura-2) in Sf9 cells; assay type: cell-based, Spodoptera frugiperda; conditions: 50 μM
Experimental: as §1
The cells are incubated for 1 hour at ambient temperature in the dark with a solution of MBS containing fura 2-AM (4 μm) (molecular probe). The cells are then washed with an excess of MBS without fura 2-AM and mounted in a Coverwell chamber (Polylabo, France) (diameter: 9 mm; thickness: 2.5 mm; cross section: 22.5).
The chamber is placed under the microscope and the cells are perfused under gravity with 0.85 ml/min (3.78 cm/min) at ambient temperature (23° C.).
as §2, with “extinction. The microscope (Olympus) is equipped with a long-distance objective (×20). The spatio-temporal Ca^2+ distributions are studied using a PCO interline camera.” for “extinction.”

[2] = molecular target: T1, HA-Gα16 (Gα16 protein with N-terminal HA epitope), expressed in Sf9 cells (human, UniProt P30679 1-374); test: colocalization by immunofluorescence, confocal microscopy, Sf9 cells infected with double-recombinant baculovirus
T1 construct: whole, on cells; Intracellular protein with a submembrane cytoplasmic location in infected Sf9 cells; also called Ga16; G16
T1 sequence (looked up): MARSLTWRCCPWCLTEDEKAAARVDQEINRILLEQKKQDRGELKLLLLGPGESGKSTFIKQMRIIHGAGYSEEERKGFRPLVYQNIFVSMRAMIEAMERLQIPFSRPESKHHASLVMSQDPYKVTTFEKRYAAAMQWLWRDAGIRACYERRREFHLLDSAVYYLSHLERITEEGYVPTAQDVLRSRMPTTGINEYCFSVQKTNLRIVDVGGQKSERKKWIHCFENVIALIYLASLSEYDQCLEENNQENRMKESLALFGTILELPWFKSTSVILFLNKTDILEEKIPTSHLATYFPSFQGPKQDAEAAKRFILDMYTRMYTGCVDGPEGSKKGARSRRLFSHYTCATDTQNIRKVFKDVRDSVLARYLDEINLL
Experimental: The cellular location of the ORs and of the G proteins were studied by immunofluorescence 36 hours after infection. The ORs are detected by means of an anti-FLAG primary antibody and an FITC-labeled secondary antibody. The G proteins are detected by means of a rhodamine-labeled anti-HA antibody.
The labeled cells are observed by confocal microscopy. In the cells infected with the AcMNPV209 and AcMNPV210 baculoviruses, labeling is observed to be located at the cell surface, with a punctate distribution typical of membrane receptors. In the cells infected with the AcSLP10G₁₆ and AcSLP10Golf baculoviruses, labeling is observed to have a submembrane cytoplasmic location. In the cells infected with the double-recombinant baculoviruses AcG₁₆-209, AcGolf-210, AcG₁₆-209 and AcGolf-210, colocalization of the receptor with each G protein co-expressed is observed. No major difference is observed between OR17-209 and OR17-210 as regards preferential binding with Golf or G₁₆. It therefore appears that these two receptors are capable of coupling to the two G proteins in insect cells.

For `CNc1c(Br)cc2oc(C[C@H]3O[C@@]4(CC[C@H]3C)O[C@H]([C@H](C)C(=O)c3ccc[nH]3)[C@H](C)C[C@H]4C)nc2c1C(=O)O` [4-bromo A23187, 4-bromo-A23187], the “intracellular Ca2+ variation (fluorescence ratio f340/f380)” value (non-infected Sf9 cells) was “induces a large increase in intracellular calcium”.

`NCC(O)c1ccc(O)cc1` (stereo not shown) [octopamine] was tested, and the intracellular calcium ([1]; all baculovirus-infected Sf9 cells (OR17-209 or OR17-210 alone, with G16 or with Golf), 36 hours after infection, FIG. 3) was “induces an increase in intracellular calcium” and the “intracellular Ca2+ variation (fluorescence ratio f340/f380)” value ([1]; non-infected Sf9 cells, FIG. 2 bottom graph, B) was “induces an increase in intracellular calcium”.

B1: human olfactory receptor OR17-209 with N-terminal FLAG epitope, expressed in Sf9 cells from baculovirus AcMNPV209 (receptor, UniProt P47890 1-313, looked up, not shown: small tags and cut ends)
chain: MEGKNLTSISECFLLGFSEQLEEQKPLFGSFLFMYLVTVAGNLLIILVIITDTQLHTPMYFFLANLSLADACFVSTTVPKMLANIQIQSQAISYSGCLLQLYFFMLFVMLEAFLLAVMAYDCYVAICHPLHYILIMSPGLCIFLVSASWIMNALHSLLHTLLMNSLSFCANHEIPHFFCDINPLLSLSCTDPFTNELVIFITGGLTGLICVLCLIISYTNVFSTILKIPSAQGKRKAFSTCSSHLSVVSLFFGTSFCVDFSSPSTHSAQKDTVASVMYTVVTPMLNPFIYSLRNQEIKSSLRKLIWVRKIHSP
notes: whole, on cells; The construct encodes EGT signal peptide, FLAG and receptor; also called OR-209
B1: binds [2].
